Experimental findings from patent US10265321B2, “Uses of salt-inducible kinase (SIK) inhibitors” (Dana-Farber Cancer Institute, Inc., priority 2014, dated 2019) are described below.

The subject of the test is BMDCs. Nature of the test: Multiplex qPCR of transcripts in stimulated BMDCs. The test is classed as cell-based, mouse. As to conditions: 2 days pre-treatment, 4 hr LPS, R848 or zymosan. The method, then:
Bone marrow-derived DCs were differentiated from C57BL/6 bone marrow in the presence of GM-CSF-conditioned media. CD11c^+ CX3CR1^hi myeloid cells and CD11c^+ CX3CR1^− DCs were isolated from the small intestine lamina propria of Cx3cr1^eGFP/+ mice (12). Detection of cell-surface Thy1.1 expression on BMDCs from 10BiT reporter mice was conducted as described previously (24). Cell viability was estimated by change in total cellular ATP levels using CellTiterGlo assays (Promega). Preparation of recombinant SIK proteins and IC50 measurements were conducted as described previously (21). Total RNA was extracted using a NucleoSpin 96 RNA isolation kit (Macherey-Nagel) followed by cDNA synthesis and multiplex RT-PCR using a microfluidic dynamic array (Fluidigm). The concentrations of TNF-α, IL-6, IL-10, IL-12p40, IL-1β and RANTES in culture supernatants were detected using a FlexSet Cytometric bead array (BD Biosciences). Alternatively, IL-10 secretion was quantified using ELISA (BD Biosciences) or AlphaLISA (PerkinElmer) assays. NO production was estimated based on nitrate content in culture medium using the Greiss reagent.
C57BL/6 mice were euthanized and bone marrow harvested from femurs and tibias as described previously (Graham D B, et al. (2007) An ITAM-signaling pathway controls cross-presentation of particulate but not soluble antigens in dendritic cells. The Journal of experimental medicine 204(12):2889-2897). BMDCs were differentiated DMEM supplemented with 2 mM GlutaMAX, 10% (vol/vol) FBS, penicillin, streptomycin and 2% mouse GM-CSF conditioned media derived from TOPO cells. Cultures were differentiated for 7 days and routinely analyzed for >90% CD11c (APC anti-CD11c clone HL3; BD Biosciences) positivity by flow cytometry before use in experiments. Lentiviral transduction of bone marrow cultures was conducted by addition of 293T culture supernatants containing lentiviral particles encoding the CREB dependent luciferase reporter construct or CRTC3 targeting or control shRNAs one day post-isolation. Stable integration of lentiviral shRNA constructs was selected by addition of puromycin (3 μg/mL) on day 4 post-transduction. After 2 days, stably transduced BMDCs were released from selection and used in subsequent assays. […]
Total RNA was extracted using a NucleoSpin 96 RNA isolation kit (Macherey-Nagel). […] Relative gene expression was calculated from Ct values and normalized against ACTB mRNA levels as described previously (Pfaffl MW (2001) A new mathematical model for relative quantification in real-time RT-PCR. Nucleic acids research 29(9):e45). […]
For orientation: Real-time PCR tracks product formation cycle by cycle.

For `COc1ccc(N(C(=O)Nc2c(C)cccc2C)c2cc(Nc3ccc(N4CCN(C)CC4)cc3)ncn2)c(OC)c1` [HG-9-91-01], the “IL-10 mRNA levels” value is reported as “robustly enhanced”; the “abundance of Arg1 and Nos2 transcripts” value is “significantly blunted”.
